Experiment [1] concerns single sIgG+CD21+ B-cells. The experiment in a line: Antigen-specificity of IgG secreted by single-cell B-cell clones (antigen-specific ELISA). The format is cell-based, sheep. The following applies: for % wells with antigen-specific IgG: % of IgG-secreting clones. The procedure:
The specificity of the secreted antibodies was analyzed using an antigen-specific ELISA (data not shown).
Additionally, the specificity of the secreted antibodies was analyzed using an antigen-specific ELISA (data not shown).
Biotin-conjugated antigens were immobilized on a streptavidin coated 96-well plate (MicroCoat, Bernried, Germany). The biotinylated antigens (100 μl/well) were used at a concentration of 100-300 ng/ml in PBS/1% RPLA4 (bovine plasma albumin) (Roche Diagnostics GmbH, Mannheim, Germany) and wells were incubated with the diluted antigens for 1 hour at room temperature (RT). After washing with Wash Buffer (0.9% NaCl/0.05% Tween) the supernatants of the in vitro cultivated B-cells or serial dilutions of purified polyclonal sheep IgG (Roche) were added to the plates and incubated for 1 hour at RT. After washing with Wash Buffer wells were incubated with a donkey anti-sheep IgG (H+L) antibody (1:15,000 dilution in PBS/1% RPLA4) labeled with horseradish peroxidase (Dianova, cat. #713-035-147). After incubation for 1 hour at RT the plates were washed with Wash Buffer and signals were detected using ABTS solution (Roche Diagnostics GmbH, Mannheim, Germany) as substrate.

In experiment [2] the test system is single sIgG+CD21+ B-cells. The experiment in a line: Sorting and cultivation of single sIgG+CD21+ B-cells, IgG concentration of supernatant by ELISA. To be noted: for % IgG positive wells: % of total wells. Type of experiment: cell-based, sheep. An excerpt:
PBMCs were isolated from sheep immunized with a KLH-conjugated hapten, underwent positive panning for enrichment of antigen-specific B-cells and were stained for both sheep sIgG and CD21. Single cells were sorted in 96-well plates using a BD FACS Aria cell sorter. Cells were cultivated in IMDM supplemented with 10% FCS, SAC, sheep TSN and PMA. Cells were cultivated in the presence of EL4B5 feeder cells. After one week of cultivation, the IgG concentration of the supernatant of the cells was analyzed by ELISA.
This experiment was performed again. PBMCs were isolated from sheep immunized with another KLH-conjugated hapten, underwent positive panning for enrichment of antigen-specific B-cells and were stained for both sheep sIgG and CD21. Double-positive single cells were sorted in 96-well plates using a BD FACS Aria cell sorter. Cells were cultivated in IMDM supplemented with 10% FCS, SAC, sheep TSN and PMA in the presence of EL4B5 feeder cells.
In control experiments single cells were cultivated using the same cultivation conditions in the absence of PMA. After one week of cultivation, the IgG concentration of the cell supernatants was analyzed by ELISA. After one week of cultivation in the presence of PMA a total of approx. 16% of total wells contained IgG-secreting B-cell clones. In turn, 35% of the wells with IgG-secreting clones contained a low IgG concentration, 35% contained an average IgG concentration and 30% contained a high IgG concentration. In the absence of PMA none of the wells contained IgG-secreting B-cell clones.
Sheep PBMCs from immunized animals were isolated as described above. Antigen-specific B-cells were enriched by positive panning using the biotinylated antigen and magnetic streptavidin microbeads (Miltenyi Biotec) as described above. Cells were stained using a 1:50 diluted FITC-labeled anti-sheep IgG monoclonal antibody (Clone GT-34) (Sigma-Aldrich) in combination with a 1:10 diluted RPE-labeled anti-sheep CD21 mAb (AbD Serotec). Cells were incubated with the mAbs for 45 min. at 4° C. under gentle rotation. In control experiments aliquots of the cells were stained with the individual mAbs alone (single staining). Unstained cells served as negative control.
After washing with PBS cells were resuspended in FACS buffer and subjected to cell sorting using a FACS Aria I cell sorter (BD Biosciences). Single sIgG^+CD21^+ double positive B-cells were identified and sorted into a 96-well plate (one cell/well) containing 280 μl medium and γ-irradiated murine EL4B5 feeder cells (approx. 5×10^4 feeder cells/well seeded 24 hours before cell sorting into the plates).
The medium for cultivation of single ovine B-cells was IMDM (Gibco) was supplemented with 10% FCS (Hyclone), L-Penicillin-Streptomycin-Glutamine (1×) (Gibco), 55 μM 2-Mercaptoethanol (Gibco), 0.025% Pluronic F-68 (Gibco), sheep TSN (1:20 dilution), SAC (1:10,000 dilution) (Calbiochem) and 1 μg/ml PMA (Sigma-Aldrich).
B-cells were incubated for 7 to 10 days in the medium at 37° C./5% CO2 in a humidified atmosphere. Subsequently the supernatant of the cells was harvested and the IgG concentration was determined by ELISA as described below
A biotin-conjugated monoclonal anti-sheep IgG antibody (cat. #213-062-177, Dianova, Hamburg, Germany) was immobilized on a streptavidin coated 96-well plate (MicroCoat, Bernried, Germany). The mAb (100 μl/well) was used at a concentration of 300 ng/ml in PBS/1% RPLA4 (bovine plasma albumin) (Roche Diagnostics GmbH, Mannheim, Germany) and wells were incubated for 1 hour at room temperature (RT) with the diluted mAb. After washing with Wash Buffer (0.9% NaCl/0.05% Tween) the supernatants of the in vitro cultivated B-cells or serial dilutions of purified polyclonal sheep IgG (Roche) were added to the plates and incubated for 1 h at RT. After washing with Wash Buffer wells were incubated with a donkey anti-sheep IgG (H+L) antibody (1:15,000 dilution in PBS/1% RPLA4) labeled with horseradish peroxidase (Dianova, cat. #713-035-147). […]

The next experiment concerns sIgG+CD45R+ B-cells. Description: IgG secretion by in vitro cultivated pools of sIgG+CD45R+ B-cells (sheep IgG ELISA of supernatants). Type of experiment: cell-based. To be noted: for number of IgG-containing wells compared with basal medium: basal medium supplemented with the factor. The source says:
(§1) To exemplify the current invention PBMCs were isolated from sheep immunized with a KLH-conjugated hapten and underwent positive panning using the biotinylated hapten and magnetic streptavidin beads to enrich antigen-specific B-cells. Subsequently, B-cells were stained for both surface IgG (sIgG) and the B-cell marker CD45R or CD21. Pools of 50 cells (sIgG^+CD45R^+ or sIgG^+CD21^+) were sorted into 96-well plates using a BD FACS Aria cell sorter. Cells were cultivated in medium supplemented with different factors in order to identify a medium composition that promotes the proliferation of the B-cells as well as the differentiation to IgG secreting cells (i.e. plasma cells)
(§2) In all experiment the basal medium was supplemented with 10% FCS, SAC and sheep TSN. Cells were cultivated in the presence of EL4B5 feeder cells.
Pools of 50 cells/well of antigen-enriched sIgG^+CD45R^+ B-cells were cultivated in the different media in a 96-well plate in the presence of EL4B5 feeder cells. After one week of cultivation the sheep IgG concentration of the supernatants was analyzed using a sheep IgG ELISA. The results for IMDM as basal medium are presented in FIG. 1 and for DMEM and IMDM as basal medium in the following Table.
(§3) For a more detailed analysis 4 categories of wells were defined: Wells with no IgG producing cells (IgG concentration below limit of detection, i.e. <10 ng/ml), wells with low IgG concentrations (10-50 ng/ml), wells with an average IgG concentration (50-200 ng/ml) and wells with a high IgG concentration (200-400 ng/ml).
(§4) Suffolk-Merino sheep were immunized several times using a KLH-coupled hapten as immunogen (500 μg dose formulated in an adjuvant). Five days before isolation of B-cells sheep were boosted by a subcutaneous application of the immunogen (500 μg dose per animal formulated in an adjuvant). For isolation of B-cells approx. 150 ml EDTA-blood was taken from the animals and mixed with an equal volume of PBS. The diluted blood was loaded on Leucosep™ tubes (Greiner Bio-One, Frickenhausen, Germany) (20 ml per tube) and centrifuged for 15 min. at 800×g at room temperature. After centrifugation the PBMCs (peripheral blood mononuclear cells) were collected, washed with PBS and counted using a counting chamber.
Following washing with PBS the PBMCs were resuspended in FACS Buffer (PBS/1% BSA) at 5×10^7 cells/ml. For positive panning of antigen-specific B-cells, the cells were labeled by incubation with the biotinylated hapten (500 ng/ml) for 30 min. at 4° C. under gentle rotation. Subsequently cells were washed with PBS and resuspended in Labeling Buffer (PBS/2 mM EDTA) at 1×10^7 cells per 90 μl. Cells were incubated with magnetic streptavidin microbeads (Miltenyi Biotec, Bergisch-Gladbach, Germany) for 30 min. at 4° C. under gentle rotation (using 10 μl of the beads per 90 μl of cell suspension). After washing with PBS cells were resuspended in MACS Buffer (PBS/1% BSA/2 mM EDTA) at 2×10^8 cells/ml and loaded on MACS column (Miltenyi Biotec) equilibrated with MACS buffer. Following washing with MACS buffer the magnet was removed from the column and labeled, antigen-specific cells were eluted in MACS buffer.
For staining of B-cells the eluted cell fraction was washed with PBS and resuspended in FACS Buffer at 2×10^7 cells/ml. […]

The next experiment deals with sIgG+CD21+ B-cells. The experiment in a line: IgG secretion by in vitro cultivated pools of sIgG+CD21+ B-cells (sheep IgG ELISA of supernatants). Type of experiment: cell-based.
Excerpt: as §1, §2
Pools of 50 cells/well of antigen-enriched sIgG^+CD21^+ B-cells were cultivated in the indicated medium in a 96-well plate in the presence of EL4B5 feeder cells. After one week of cultivation the sheep IgG concentration of the supernatants was analyzed using a sheep IgG ELISA. The results for IMDM as basal medium are presented in FIG. 2 and for DMEM and IMDM as basal medium in the following Table.
as §3, §4
Following washing with PBS the PBMCs were resuspended in FACS Buffer (PBS/1% BSA) at 5×10^7 cells/ml. For positive panning of antigen-specific B-cells, the cells were labeled by incubation with the biotinylated hapten (500 ng/ml) for 30 min. at 4° C. under gentle rotation. Subsequently cells were washed with PBS and resuspended in Labeling Buffer (PBS/2 mM EDTA) at 1×10^7 cells per 90 μl. […]

Setting [3] is: second experiment, listed as with PMA.
The mark [4] stands for this setting: first experiment, % of wells with IgG-secreting clones.
[5] abbreviates: second experiment, % of wells with IgG-secreting clones.
Setting [6] is: second experiment, % of wells with IgG-secreting clones, listed as with PMA.

Consider `CCCCCCCCCCCCCC(=O)O[C@@H]1[C@@H](C)[C@@]2(O)[C@@H](C=C(CO)C[C@]3(O)C(=O)C(C)=C[C@@H]23)[C@@H]2C(C)(C)[C@]12OC(C)=O` [PMA, Phorbol 12-Myristate-13-Acetate], for which the “IgG-secreting clones producing antigen-specific antibodies” value in experiment [1] (first experiment, % of total IgG-secreting clones) is 38%. Moreover, in experiment [1] (second experiment), the “No. wells with antigen-specific IgG” value came to 19 and the “% wells with antigen-specific IgG” value is given as 29%. Moreover, the “% wells with antigen-specific IgG” value in experiment [1] (setting [3]) was 28.8%. In addition, in experiment [2] (setting [4]), the “wells with IgG-secreting clones containing a high IgG concentration (200-400 ng/ml)” value is 14%, the “wells with IgG-secreting clones containing a low IgG concentration (10-50 ng/ml)” value came out at 62% and the “wells with IgG-secreting clones containing an average IgG concentration (50-200 ng/ml)” value was found to be 24%. Further, in experiment [2] (first experiment, single cells, IMDM with 10% FCS, SAC, sheep TSN and PMA, EL4B5 feeder cells, one week), the “total wells containing IgG-secreting B-cell clones” value is 33%. For the same molecule, in experiment [2] (second experiment), the “wells with high IgG conc. (number)” value is given as 20, the “wells with low IgG conc. (number)” value turned out to be 23, the “wells with medium IgG conc. (number)” value was determined as 23 and the “% IgG positive wells” value is recorded as “approx. 16%”. In addition, the “No. IgG positive wells” value in experiment [2] (second experiment (another KLH-conjugated hapten), single cells, one week) is recorded as 66. Also, the “% IgG positive wells” value in experiment [2] (setting [3]) is 15.7%. Further, in experiment [2] (setting [5]), the “wells with high IgG conc. (%)” value amounted to 30%, the “wells with low IgG conc. (%)” value is 35% and the “wells with medium IgG conc. (%)” value turned out to be 35%. In addition, in experiment [2] (setting [6]), the “wells with high IgG conc. (%)” value was 30.3%, the “wells with low IgG conc. (%)” value turned out to be 34.8% and the “wells with medium IgG conc. (%)” value is on record as 34.8%. Also, the “wells containing significant concentrations of IgG (>50 ng/ml)” value in the experiment with sIgG+CD45R+ B-cells (DMEM basal medium (10% FCS, SAC, sheep TSN)) is listed as 64%. The “wells with an average IgG concentration (50-200 ng/ml)” value in the experiment on sIgG+CD45R+ B-cells (IMDM as basal medium) turned out to be 100%. In addition, the “wells containing significant concentrations of IgG (>50 ng/ml)” value in the experiment on sIgG+CD45R+ B-cells (IMDM basal medium (10% FCS, SAC, sheep TSN)) was determined as 100%. For the same molecule, in the experiment with sIgG+CD21+ B-cells (IMDM as basal medium), the “wells with a high IgG concentration (200-400 ng/ml)” value is “approx. 50%” and the “wells with an average IgG concentration (50-200 ng/ml)” value is recorded as “approx. 40%”. Besides, the “wells containing significant levels of IgG (>50 ng/ml)” value in the experiment with sIgG+CD21+ B-cells (addition to the basal medium) is recorded as “approx. 90%”.
Consider “IL-6: human IL-6 (Roche Diagnostics GmbH), 50 ng/ml added to the basal medium”, for which, in the experiment with sIgG+CD45R+ B-cells, the “number of IgG-containing wells compared with basal medium” value was “increase”.

B1: IL-4: human IL-4 (Peprotech), 10 ng/ml added to the basal medium (protein, UniProt P05112 25-153, looked up)
Interleukin-4: HKCDITLQEIIKTLNSLTEQKTLCTELTVTDIFAASKNTTEKETFCRAATVLRQFYSHHEKDTRCLGATAQQFHRHKQLIRFLKRLDRNLWGLAGLNSCPVKEANQSTLENFLERLKTIMREKYSKCSS
On to B1, for which the “number of IgG-containing wells compared with basal medium” value with sIgG+CD45R+ B-cells and in the experiment on sIgG+CD21+ B-cells (basal medium supplemented with the factor) was “increase” each time.

These data come from US11560420B2, “Method for producing antibodies using ovine B-cells and uses thereof” (Roche Diagnostics Operations, Inc., priority 2013, dated 2023).
